Assay results as given in patent US20050054582A1, “Para-amino benzoic acids as integrin antagonists” (priority 2001, published 2005).
Like-named read-outs stand apart in the source and are kept apart here.

Tested on: adhesion of Ramos cells to VCAM-1
Assay: Adhesion of Ramos cells to immobilized VCAM-1 (domains 1-3)
Assay type: cell-based
Settings: Homo sapiens
Excerpt: In Vitro Assay: Adhesion of Ramos Cells to Immobilized VCAM-1 (Domains 1-3) Preparation of VCAM-1 (Extracellular Domains 1-3)
Complementary DNA (cDNA) encoding 7-domain form of VCAM-1 (GenBank accession #M60335) was obtained using Rapid-Screen™ cDNA library panels (OriGene Technologies, Inc) at Takara Gene Analysis Center (Shiga, Japan). The primers used were 5′-CCAAGGCAGAGTACGCAAAC-3′ (sense) and 5′-TGGCAGGTATTATTAAGGAG-3′ (antisense). PCR amplification of the 3-domain VCAM-1 cDNA was perform using Pfu DNA polymerase (Stratagene) with the following sets of primers: (U-VCAMd1-3) 5′-CCATATGGTACCTGATCAATTTAAAATCGAGACCACCCCAGAA-3′; (L-VCAMdl-3) 5-CCATATAGCAATCCTAGGTCCAGGGGAGATCTCAACAGTAAA-3′. PCR cycle was 94° C. for 45 sec, 55° C. for 45 sec, 72° C. for 2 min, repeating 15 cycles. After the purification of the PCR product, the fragment was digested with KpnI-AvrII. The digested fragment was ligated into pBluescript IISK(−) (Strategene), which was linearized by digesting with KpnI-XhoI. The ligation was followed by transformation to a Dam/Dcm methylase-free E. coli strain SCS110 (Strategene) to create the donor plasmid […]. To direct VCAM-1 molecule into the insect cell secretory pathway, the VCAM-1 coding sequence was fused to signal peptide sequence of honeybee melittin. The resulting melittin-VCAM fusion was placed in correct orientation to the baculovirus polyhedrin promoter. Baculovirus transfer vector containing first 3-domain form VCAM-1 (pH10) was constructed by ligation of 0.9 kb fragment from AvrII/Klenow/BclI digests of pH7 into SalI/Klenow/BamHI digests of pMelBacB (Invitrogen). Recombinant baculovirus was generated by using Bac-N-Blue™ Transfection kit (Invitrogen) according to the manufacture's instruction. The recombinant virus was amplified by infection to High-Five™ insect cells for 5-6 days, and virus titer was determined by plaque assay.
High-Five™ insect cells were pelleted in a 225 ml conical tube by centrifugation at 1000 rpm for 5 min. After discarding the supernatant, the pellet was resuspended in 1.5×10^9 pfu (MOI=5) of high-titer virus solution, followed by incubation for 1.5 hours at room temperature. The cells were pelleted again and washed once in fresh Express Five™ serum free medium. The cells were pelleted again and finally, resuspended in 200 ml of fresh Express Five TM medium, transferred to a 1,000 ml shaker flask, and incubated in a shaker at 27° C., 130 rpm, for 48 hours before the culture supernatant was collected. The purification of 3-domain form of VCAM-1 from the culture supernatant was performed by one-step anion exchange chromatography. Protein concentration was determined by using Coomassie protein assay reagent (Pierce) according to the manufacture's instruction.
Preparation of VCAM-1 Coated Microtiter Plates
Recombinant human VCAM-1 (extracellular domains 1-3) was dissolved at 1.0 μg/ml in PBS. Each well of the microtiter plates (Nalge Nunc International, Fluoronunc Cert, 437958) was coated with 100 μl of substrate or for background control with buffer alone for 15 hours at 4 C. After discarding the substrate solution, the wells were blocked using 150 μl per well of block solution (Kirkegaard Perry Laboratories, 50-61-01) for 90 minutes. The plate was washed with wash buffer containing 24 mM Tris-HCl (pH 7.4), 137 mM NaCl, […] and 2 mM MnCl2 just before addition of the assay.
In Vitro Assay using Ramos Cells
Preparation of Fluorescence Labeled Ramos Cells:
Ramos cells (American Type Culture Collection, Clone CRL-1596) were cultured in RPMI 1640 medium (Nikken Bio Medical Laboratory, CM1101) supplemented with 10% fetal bovine serum (Hyclone, A-1119-L), 100 U/ml penicilin (Gibco BRL, 15140-122) and 100 μg/ml streptomycin (Gibco BRL, 15140-122) in a humidified incubator at 37° C. with 5% CO2. […]

IC50 (Ramos) [nM] | SMILES | IC50 (observed IC50 value ranges, Table 4 does not say whether Ramos-VCAM-1 or Jurkat-VCAM-1, read-out: IC50) [nM]
< 500 | Cc1ccccc1NC(=O)Nc1ccc(CC(=O)N[C@@H](CCN)C(=O)Nc2ccc(C(=O)O)cc2)cc1 [Example 40, 4-{[(2S)-4-amino-2-({[4-({[(2-methylphenyl)amino]carbonyl}amino)phenyl]acetyl}amino)butanoyl]amino}benzoic acid] | 
< 500 | Cc1ccccc1NC(=O)Nc1ccc(CC(=O)N[C@@H](CCCN)C(=O)Nc2ccc(C(=O)O)cc2)cc1 [Example 41, 4-[(N^2-{[4-({[(2-methylphenyl)amino]carbonyl}amino)phenyl]acetyl}-L-ornithyl)amino]benzoic acid] | 
< 500 | Cc1ccccc1NC(=O)Nc1ccc(CC(=O)N[C@@H](CC(=O)O)C(=O)Nc2ccc(C(=O)O)cc2)cc1 [Example 42, 4-[(N-{[4-({[(2-methylphenyl)amino]carbonyl}amino)phenyl]acetyl}-L-α-aspartyl)amino]benzoic acid] | 
< 500 | Cc1ccccc1NC(=O)Nc1ccc(CC(=O)N[C@@H](Cc2c[nH]c3ccccc23)C(=O)Nc2ccc(C(=O)O)cc2)cc1 [Example 43, 4-[(N-{[4-({[(2-methylphenyl)amino]carbonyl}amino)phenyl]acetyl}-L-tryptophyl)amino]benzoic acid] | 
< 500 | Cc1ccccc1NC(=O)Nc1ccc(CC(=O)NC(Cc2ccncc2)C(=O)Nc2ccc(C(=O)O)cc2)cc1 [Example 44, 4-{[N-{[4-(f{[(2-methylphenyl)amino]carbonyl}amino)phenyl]acetyl}-3-(4-pyridinyl)-L-alanyl]amino}benzoic acid] | 
< 500 | Cc1ccccc1NC(=O)Nc1ccc(CC(=O)N[C@@H](Cc2cccnc2)C(=O)Nc2ccc(C(=O)O)cc2)cc1 [Example 45, 4-{[N-{[4-({[(2-methylphenyl)amino]carbonyl}amino)phenyl]acetyl}-3-(3-pyridinyl)-L-alanyl]amino}benzoic acid] | 
< 500 | Cc1ccccc1NC(=O)Nc1ccc(CC(=O)N[C@@H](Cc2cscn2)C(=O)Nc2ccc(C(=O)O)cc2)cc1 [Example 46, 4-{[N-{[4-({[(2-methylphenyl)amino]carbonyl}amino)phenyl]acetyl}-3-(1,3-thiazol-4-yl)-L-alanyl]amino}benzoic acid] | 
< 500 | Cc1ccccc1NC(=O)Nc1ccc(CC(=O)N[C@@H](Cc2cnc[nH]2)C(=O)Nc2ccc(C(=O)O)cc2)cc1 [Example 47, 4-[(N-{[4-({[(2-methylphenyl)amino]carbonyl}amino)phenyl]acetyl}-L-histidyl)amino]benzoic acid] | 
< 500 | Cc1ccccc1NC(=O)Nc1ccc(CC(=O)N(CCCN(C)C)CC(=O)Nc2ccc(C(=O)O)cc2)cc1 [Example 56, 4-[(N-[3-(dimethylamino)propyl]-N-{[4-({[(2-methylphenyl)amino]carbonyl}amino)phenyl]acetyl}glycyl)amino]benzoic acid] | 
< 500 | Cc1ccccc1NC(=O)Nc1ccc(CC(=O)N(CCCCN)CC(=O)Nc2ccc(C(=O)O)cc2)cc1 [Example 57, 4-[(N-(4-aminobutyl)-N-{[4-({[(2-methylphenyl)amino]carbonyl}amino)-phenyl]acetyl}glycyl)amino]benzoic acid] | 
< 500 | Cc1ccccc1NC(=O)Nc1ccc(CC(=O)N(CCCN2CCCC2)CC(=O)Nc2ccc(C(=O)O)cc2)cc1 [Example 58, 4-({N-{[4-({[(2-methylphenyl)amino]carbonyl}amino)phenyl]acetyl}-N-[3-(1-pyrrolidinyl)propyl]glycyl}amino)benzoic acid] | 
 | CCN1CCCC1CN(CC(=O)Nc1ccc(C(=O)O)cc1)C(=O)Cc1ccc(NC(=O)Nc2ccccc2C)cc1 (stereo not shown) [Example 59, 4-[(N-[(1-ethyl-2-pyrrolidinyl)methyl]-N-{[4-({[(2-methylphenyl)amino]-carbonyl}amino)phenyl]acetyl}glycyl)amino]benzoic acid] | < 500
< 500 | Cc1ccccc1NC(=O)Nc1ccc(CC(=O)N(CCCN2CCN(c3ccccc3)CC2)CC(=O)Nc2ccc(C(=O)O)cc2)cc1 [Example 60, 4-({N-{[4-({[(2-methylphenyl)amino]carbonyl}amino)phenyl]acetyl}-N-[3-(4-phenyl-1-piperazinyl)propyl]glycyl}amino)benzoic acid] | 
